Laboratory results: PMC11259170, “Small-molecule probe for IBD risk variant GPR65 I231L alters cytokine signaling networks through positive allosteric modulation” (Science Advances, 2024)
Like-named read-outs stand apart in the source and are kept apart here.

Experiments:
[1] = tested on: GFP-expressing HeLa cells; assay: cAMP detection in HeLa expression cell line, GFP control; assay type: cell-based, human; settings: Homo sapiens, HeLa, 2nd GFP column pair, NA = no activity
How it was run: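 HeLa cells stably expressing C-terminally V5-tagged receptor or GFP (lentiviral, puromycin 3 μg/ml) stimulated at 1500 cells per well for 30 min at RT with compound (10 mM DMSO stock) in stimulation buffer at pH 7.2. cAMP detected by Lance Ultra TR-FRET after lysis and 1 h detection, excitation 337 nm, emission 620/665 nm.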

[2] = Solubility remark in the Comments column of the SAR table; assay type: physicochemical
Source text: Supplement sciadv.adn2339_data_s1_to_s4.zip/sciadv.adn2339_data_s2.xlsx, sheet "SAR cAMP Assay"

hGPR65 = molecular target: T1, hGPR65 (Homo sapiens, UniProt Q8IYL9); assay: cAMP detection in HeLa expression cell line, hGPR65; assay type: cell-based; settings: NA = no activity; for EC50: read-out: hGPR EC50; for Emax: HeLa, relative to 100uM forskolin (100%) and DMSO (0%), read-out: hGPR Max Activity %
T1 construct: expressed in transfected cells; host or cells: HeLa (ATCC CCL-2), lentiviral transduction, pLX317
T1 sequence (Q8IYL9 whole entry): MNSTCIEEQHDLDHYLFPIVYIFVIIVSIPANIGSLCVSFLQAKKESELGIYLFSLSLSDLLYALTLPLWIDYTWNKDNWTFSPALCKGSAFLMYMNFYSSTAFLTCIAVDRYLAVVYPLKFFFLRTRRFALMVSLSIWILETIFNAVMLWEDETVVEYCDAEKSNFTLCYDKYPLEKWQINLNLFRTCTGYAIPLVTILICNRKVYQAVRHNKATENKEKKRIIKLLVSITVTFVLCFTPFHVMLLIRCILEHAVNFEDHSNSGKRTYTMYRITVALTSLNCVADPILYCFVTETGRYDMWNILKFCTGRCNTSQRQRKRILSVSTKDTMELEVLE
How it was run: (§1)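 HeLa cells stably expressing C-terminally V5-tagged receptor (lentiviral transduction, puromycin-selected) were stimulated with compound from a 10 mM DMSO stock for 30 min at RT in stimulation buffer adjusted to pH 7.2, 1500 cells per well. cAMP was read by LANCE Ultra TR-FRET (665/620 nm) after 1 h detection.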

mGPR65 = molecular target: T2, mGPR65 (Mus musculus, UniProt Q61038); assay: cAMP detection in HeLa expression cell line, mGPR65; assay type: cell-based; settings: NA = no activity; for EC50: read-out: mGPR EC50; for Emax: HeLa, relative to 100uM forskolin (100%) and DMSO (0%), read-out: mGPR Max Activity %
T2 construct: expressed in transfected cells; host or cells: HeLa (ATCC CCL-2), lentiviral transduction, pLX317
T2 sequence (Q61038 whole entry): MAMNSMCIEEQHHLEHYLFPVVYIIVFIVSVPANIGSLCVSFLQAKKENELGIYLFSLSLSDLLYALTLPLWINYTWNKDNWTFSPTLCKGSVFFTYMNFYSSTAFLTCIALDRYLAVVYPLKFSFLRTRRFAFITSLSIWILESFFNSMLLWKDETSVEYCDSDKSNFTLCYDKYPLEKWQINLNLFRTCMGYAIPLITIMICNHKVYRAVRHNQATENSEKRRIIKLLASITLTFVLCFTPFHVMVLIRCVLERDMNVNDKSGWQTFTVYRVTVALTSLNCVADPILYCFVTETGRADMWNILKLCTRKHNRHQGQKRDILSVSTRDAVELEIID
How it was run: as §1

Compound: Cc1ccc(NC(=O)c2cnn3c(O)cc(-c4ccc(-c5ccccc5C(C)C)cc4)nc23)cc1 [BRD4665]
- EC50 [1]: 26400 nM
- Emax ([1]; relative to 100uM forskolin (100%) and DMSO (0%), read-out: GFP Max Activity %): 12%
- Comments (solubility) [2]: Poor solubility.
- EC50 (hGPR65; 1st hGPR column pair): 227 nM
- EC50 (hGPR65; 2nd hGPR column pair): 152 nM
- Emax (hGPR65; 1st hGPR column pair): 76.3%
- Emax (hGPR65; 2nd hGPR column pair): 79.6%
- EC50 (mGPR65; 1st mGPR column pair): 787 nM
- EC50 (mGPR65; 2nd mGPR column pair): 627 nM
- Emax (mGPR65; 2nd mGPR column pair): 33.2%
- Emax (mGPR65): 34.9%
